Reference: US8965708B2, “Method for the treatment of acquired lymphedema” (The Board of Trustees of the Leland Stanford Junior …, priority 2006, dated 2015)
Entries after “also recorded” stand apart in the source; their conditions may differ.

Columns and labels:
patients with lymphedema [1] = experiment: Human study: participant outcomes following the clinical trial; assay type: in vivo
Log Kow = assay type: physicochemical
[2] = test system: gene expression in lymphedemous tissue; experiment: Paired whole genome transcriptional profiling of human lymphedema (Agilent human array); assay type: in vivo; conditions: of the 8431 genes altered in lymphedema versus normal tissue
Procedure: Paired whole genome transcriptional profiling was performed using the Agilent human array (n=30). Expression profiles of untreated and post-treated lymphedemous tissue were compared to the normal cutaneous RNA from the same subject.

patients with lymphedema [3] = experiment: Human study: volume of fluid lost from affected limb after 90 days ketoprofen; assay type: in vivo; conditions: 75 mg orally twice or three times per day for 90 days
Procedure: FIG. 23. […] For the purposes of comparing bilateral results to unilateral results, volume lost in bilateral lymphedema was calculated by determining the total volume lost and dividing by 2.
Biopsies were taken pre- and post-treatment, and clinical responses were reassessed monthly. 44 participants were enrolled (FIG. 22), 38 of which had completed the study at the time the data was collected. Average age of the patient was 57 years+/−14 years (24-85 years of age). The average length of time that the patient had had lymphedema was 10+/−10 years (0.5-40 years). Lymphedema was due to the following: breast cancer (12 patients (27.3%)); cervical cancer (6 patients (13.6%)); uterine cancer (2 patients (4.5%)); ovarian cancer (2 patients (4.5%)); penile cancer (1 patient (2.3%)); Hodgkin's lymphoma (2 patients (4.5%)); trauma (5 patients (11.4%)); infection (3 patients (6.8%)); venous insufficiency (3 patients (6.8%)); May-Thurner syndrome (2 patients (4.5%)); primary lymphedema ([…]); other (2 patients (4.5%)).

[4] = test system: cytokine levels in tail skin; experiment: Tissue cytokine assays (Luminex) in tail skin homogenates; assay type: in vivo, mouse
Procedure: Cytokine levels in tail skin were measured in normal controls and mice with untreated, NSAID-treated, and sTNF-R1-treated lymphedema (n=3 per group) sacrificed on postoperative day 7. The Luminex LabMap200 System was used to measure the levels of 42 cytokines from the supernatant of tissue homogenates. Multiplex cytokine kits were purchased from Panomics (Fremont, Calif.), and the assay was performed according to the manufacturer's recommendation with the following modifications: 25-50 μl of samples, standards, and controls were added in duplicate to 96-well filter plates pre-configured with a panel of anti-cytokine antibodies covalently linked to unique polystyrene beads. The plate was incubated overnight at 4° C. in the dark with shaking at 500 rpm, vacuum aspirated, and washed three times with 140 μl of wash buffer to remove unbound antigen. Biotinylated detection antibody solution (25 μl) was added to each well and incubated for 1 hour with shaking at 500 rpm at room temperature. The plate was incubated with 50 μl of streptavidin-phycoerythrin for 35 minutes and then with 120 μl of reading buffer for 3 minutes at room temperature with shaking. After laser excitation, digital images of the bead array were captured with a CCD camera and analyzed on a computer workstation with BeadView software.

patients with lymphedema [5] = experiment: Human study: histology of cutaneous biopsies (Hematoxylin and Eosin, Sirius Red); assay type: in vivo; conditions: 90 days / 3 months after start of treatment
Text: FIG. 24. Tissue architecture before and after ketoprofen treatment. (A) Cutaneous biopsies stained with Hematoxylin and Eosin. (B) Cutaneous biopsies stained with Hoechst. “Normal”: unaffected contralateral limb. “Lymphedema, Pre-Rx”: affected tissue at the start of treatment. “Lymphedema post-Rx”: affected tissue 90 days following treatment.
FIG. 25. […] Fibrotic response (thickening tissue, collagen deposition in dermis and subdermis) is quantified by measuring the mean pixel intensity of Sirius Red uptake. […] In lymphedemous tissue (LY), an increase in fibrotic tissue is observed. Three months after the start of treatment (Rx/NL), the tissue has returned to a healthy state. Y axis is the ratio of paired samples. “NL/NL”: fibrosis in unaffected tissue, normalized to the pixel intensity of Sirius Red uptake in the unaffected tissue. “LY/NL”: fibrosis at the start of treatment, normalized to the pixel intensity of Sirius Red uptake in the unaffected tissue. “Rx/NL”: fibrosis after 3 months treatment, normalized to the pixel intensity of Sirius Red uptake in the unaffected tissue.
Biopsies were taken pre- and post-treatment, and clinical responses were reassessed monthly. 44 participants were enrolled (FIG. 22), 38 of which had completed the study at the time the data was collected. Average age of the patient was 57 years+/−14 years (24-85 years of age). […]

CD30 and IgE levels = experiment: Human study: serum analysis of CD30 and IgE; assay type: in vivo; conditions: pre to post treatment
[6] = Mass spectrometry of ketoprofen in tissue following topical administration; assay type: in vivo, mouse; conditions: topical preparation delivered daily to mice; mass spectrometry of biopsy
[7] = test system: TNF-α, MCP-1, VEGF-C, VEGF-D, VEGFR-3, Prox1, LYVE-1 expression; experiment: Targeted gene expression analysis by quantitative real-time RT-PCR in tail skin; assay type: in vivo, mouse
Procedure: Primers and probes were from Assays-on-Demand (Applied Biosystems, Foster City, Calif.). cDNA was synthesized from 5 μg of total RNA with Taqman reverse-transcription reagents (Applied Biosystems) and amplified in triplicate at 50° C. for 2 minutes and 95° C. for 10 minutes, followed by 40 cycles of 95° C. for 15 seconds and 60° C. for 1 minute. Reactions without template and/or enzyme were used as negative controls. 18S ribosomal RNA served as an internal control. A standard curve derived from embryonic mouse RNA was plotted for each target gene by linear regression using SPSS software (v. 11.0, Applied Biosystems). RNA quantity was expressed relative to the corresponding 18S control. Fold differences were calculated by dividing the experimental results by the pooled normal results and were plotted on a log 10 scale.

[8] = test system: tail lymphedema in SKH-1 mice; experiment: Histology and histomorphometric quantitation of epidermal thickness (Example 4); assay type: in vivo, mouse; conditions: for histological changes in mice with lymphedema: hematoxylin/eosin
Procedure: Immediately after sacrifice, 0.5-g sections of tail were harvested for histological analysis and RNA extraction. Sections extended from a point 4 mm proximal to the surgical incision to 8 mm beyond it. The specimens were fixed overnight in 4% paraformaldehyde, embedded in paraffin, cut into 5-μm sections, stained with hematoxylin and eosin (Richard-Allan Scientific, Kalamazoo, Mich.), and examined by light microscopy.
Epidermal thickness was measured serially using digital images of histology slides stained with hematoxylin and eosin. Processing and analysis were performed using Adobe Photoshop CS4 and ImageJ (http://rsbweb.nih.gov/ij) as previously described with modifications (Sanders J E, et al. Comput Methods Programs Biomed. 1999; 59:167-180). Quantitative measurements were imported to Prism 5 software (GraphPad Software Inc., La Jolla, Calif.) for statistical analysis and graphing.

[9] = test system: CD11B+ cells and CD4+ helper T cells in affected tissue; experiment: Human study: immunohistochemistry of CD11b+ and CD4+ cell infiltrates in biopsies; assay type: in vivo; conditions: 4th clinical follow up visit
Procedure: FIG. 26. […] 3 samples from each patient were analyzed by paired analysis: NL (biopsy from an unaffected limb), 1-LY (biopsy from affected limb), and 4-LY (4th clinical follow up visit).
FIG. 29. Quantification of CD4+ helper T cell involvement in lymphedema pathology. 3 samples from each patient were analyzed by paired analysis: NL (biopsy from an unaffected limb), 1-LY (biopsy from affected limb), and 4-LY (4th clinical follow up visit).
To determine the cellular basis for the lymphedema pathology, lymphedemous tissue was analyzed for the aberrant presence of immune cells.

[10] = postoperative day 7, listed as NSAID
[11] = day 11, lymphedema mice, listed as NSAID
[12] = lymphedema mice, listed as NSAID

## CC(C(=O)O)c1cccc(C(=O)c2ccccc2)c1 (stereo not shown) [ketoprofen]
Patients with lymphedema [1]
  participants who describe the affected limb as normal in size: 2%
  participants who described relief from pain: 7%
  participants who discontinued chronic use of compression garments: 9%
  participants who elected to continue off-label treatment: 100%
  participants who noted that the affected limb feels lighter: 7%
  participants who noted that the compression garment is loose: 2%
Log Kow
  Log Kow: 3.00
[2]
  fraction of altered genes displaying directional normalization after treatment: 72%
  number of genes displaying directional normalization after treatment: 6050
Patients with lymphedema [3]
  fluid lost from the affected limb, unilateral lymphedema (average): 354 milliliters
Patients with lymphedema [3]; total volume lost divided by 2
  fluid lost from one affected limb, bilateral lymphedema (average): 533 milliliters
[4]; postoperative day 7
  MCP-1 tissue levels (protein): further increased
[4]; [10]
  MCP-3 tissue levels (protein): significantly reduced; also recorded: inhibited
  macrophage inflammatory protein 1a (MIP1a) tissue levels: inhibited
[4]; postoperative day 7, median fluorescence intensity
  TNF-α tissue levels (protein): significantly higher
Patients with lymphedema [5]
  tissue architecture, protein deposition and fibrosis in cutaneous biopsies: reversal of disease-associated protein deposition and fibrosis; also recorded: restoration in the tissue architecture; also recorded: abrogates the inflammation that leads to a fibrotic response in the skin
CD30 and IgE levels
  serum CD30 amounts, average decrease after treatment: 13%
[6]
  permeation of topically administered drug into skin layers: permeates into the deepest layers of the skin
[7]; day 11, lymphedema mice
  Prox1 expression: significant, parallel up-regulation
  TNF-α expression (mRNA): further increased
[7]; [11]
  MCP-1 expression (mRNA): significantly induced
  Prox1 expression: significantly induced
  TNF-α expression (mRNA): significantly induced
[7]; lymphedema mice
  VEGF-C expression (mRNA): significant upregulation
  VEGFR-3 expression: significantly upregulated
[7]; [12]
  VEGF-C expression (mRNA): significant, parallel up-regulation; also recorded: significantly induced
  VEGFR-3 expression: significant, parallel up-regulation; also recorded: significantly induced
[7]; lymphedema mice, vs vehicle
  VEGF-D expression (mRNA): significant upregulation
[8]; FIG. 14B
  epidermal thickness (ET) compared to untreated LY mice: significantly reduced
[8]; day 11
  epidermal thickness decreased, compared to untreated lymphedema mice: 47.0±5.1%
  histological changes in mice with lymphedema: substantial normalization from the untreated histology
[8]; day 11, listed as NSAID
  histological changes in mice with lymphedema: normalization of histological changes; also recorded: normalizes these pathological findings
[9]
  CD4+ cells in affected tissue after treatment: absent
  CD11B+ cells in affected tissue after treatment: absent; also recorded: returns CD11b counts to normal
